From patent US9480259B2, “Pyrazolopyrans having herbicidal and pharmaceutical properties” (BASF SE, priority 2012, dated 2016)

Target: Arabidopsis thaliana SHMT
Test: SHMT activity assay (ED50 SHMT), coupled with N5,N10-CH2-THF dehydrogenase, NADH at 340 nm
Assay type: biochemical
Conditions: values given as upper bounds
How it was run: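 His-tagged SHMT purified on Ni-NTA. NADH formation followed at 340 nm for 30 min; ED50 from inhibition of initial velocity.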

[1] = Table 2, Arabidopsis thaliana SHMT enzyme assay

Structure (SMILES)	EC50 [1] [nM]	EC50 (Table 2) [nM]
CCOc1n[nH]c2c1C(c1cc(Br)cc(C#N)c1)(C1(F)CC1)C(C#N)=C(N)O2 (stereo not shown) [Compound 2.395]	< 1000	
CCOc1n[nH]c2c1C(c1cc(C#N)cc(C#N)c1)(C1CCC1)C(C#N)=C(N)O2 (stereo not shown) [Compound 2.397]	< 100	
COc1n[nH]c2c1C(c1cc(Cl)cc(OCC#N)c1)(C1CCC1)C(C#N)=C(N)O2 (stereo not shown) [Compound 2.444]		< 100
COc1c(F)cc(C2(C3(F)CC3)C(C#N)=C(N)Oc3[nH]nc(C)c32)cc1F (stereo not shown) [Compound 2.448]		< 1000
Cc1n[nH]c2c1C(c1cc(F)c(O)c(F)c1)(C1CCC1)C(C#N)=C(N)O2 (stereo not shown) [Compound 2.449]		< 100
Cc1n[nH]c2c1C(c1cc(C#N)cc(N3CCCC3=O)c1)(C1(F)CC1)C(C#N)=C(N)O2 (stereo not shown) [Compound 2.452]		< 1000
COC(=O)c1ccc(-c2cc(C#N)cc(C3(C4CCC4)C(C#N)=C(N)Oc4[nH]nc(OC)c43)c2)cc1 (stereo not shown) [Compound 2.454]		< 1000
COC(=O)c1ccc(-c2cc(C#N)cc(C3(C4CCC4)C(C#N)=C(N)Oc4[nH]nc(C)c43)c2)cc1 (stereo not shown) [Compound 2.455]		< 100
COC(=O)c1ccc(-c2cc(Cl)cc(C3(C4CCC4)C(C#N)=C(N)Oc4[nH]nc(C)c43)c2)cc1 (stereo not shown) [Compound 2.458]		< 100
N#CC1=C(N)Oc2[nH]nc(CO)c2C1(c1cc(C(F)(F)F)cc(C(F)(F)F)c1)C1(F)CC1 (stereo not shown) [Compound 2.465]		< 100
CCC1(c2ccc(C)c(Br)c2)C(C#N)=C(N)Oc2[nH]nc(C)c21 (stereo not shown) [Compound 2.466]		< 100
CCC1(c2ccc(Br)c(Cl)c2)C(C#N)=C(N)Oc2[nH]nc(C)c21 (stereo not shown) [Compound 2.472]		< 100
Cc1n[nH]c2c1C(c1cc(OCc3nnn[nH]3)cc(C(F)(F)F)c1)(C1CCC1)C(C#N)=C(N)O2 (stereo not shown) [Compound 2.474]		< 10
Cc1n[nH]c2c1C(c1cc(C#N)cc(OCc3nnn[nH]3)c1)(C1CCC1)C(C#N)=C(N)O2 (stereo not shown) [Compound 2.475]		< 10
COCOc1cc(C(F)(F)F)cc(C2(C3CCC3)C(C#N)=C(N)Oc3[nH]nc(C)c32)c1 (stereo not shown) [Compound 2.476]		< 10
COCOc1cc(C#N)cc(C2(C3CCC3)C(C#N)=C(N)Oc3[nH]nc(C)c32)c1 (stereo not shown) [Compound 2.477]		< 10
CCOC(=O)COc1cc(Br)cc(C2(C3(F)CC3)C(C#N)=C(N)Oc3[nH]nc(C)c32)c1 (stereo not shown) [Compound 2.479]		< 100
CCOC(=O)COc1cc(Cl)cc(C2(C3CCC3)C(C#N)=C(N)Oc3[nH]nc(C)c32)c1 (stereo not shown) [Compound 2.480]		< 100
Cc1n[nH]c2c1C(c1cc(Cl)cc(Oc3ccc(O)cc3[N+](=O)[O-])c1)(C1CCC1)C(C#N)=C(N)O2 (stereo not shown) [Compound 2.481]		< 10
Cc1n[nH]c2c1C(c1cc(Cl)cc(-c3cccc(C(=O)O)c3)c1)(C1CCC1)C(C#N)=C(N)O2 (stereo not shown) [Compound 2.482]		< 10

Further lines, results first:

EC50 [1] [nM]	EC50 (Table 2) [nM]	Structure (SMILES)
	< 10	Cc1n[nH]c2c1C(c1cc(Cl)cc(OCC#N)c1)(C1CCC1)C(C#N)=C(N)O2 (stereo not shown) [Compound 2.443]
	< 10	COCOc1cc(Cl)cc(C2(C3CCC3)C(C#N)=C(N)Oc3[nH]nc(C)c32)c1 (stereo not shown) [Compound 2.445]
	< 10	Cc1n[nH]c2c1C(c1cc(Cl)cc(OCc3nnn[nH]3)c1)(C1CCC1)C(C#N)=C(N)O2 (stereo not shown) [Compound 2.446]
	< 10	COc1c(F)cc(C2(C3CCC3)C(C#N)=C(N)Oc3[nH]nc(C)c32)cc1F (stereo not shown) [Compound 2.447]
	< 10	CC(=O)N(C)c1cc(C#N)cc(C2(C3(F)CC3)C(C#N)=C(N)Oc3[nH]nc(C)c32)c1 (stereo not shown) [Compound 2.451]
	< 10	COC(=O)c1cccc(-c2cc(C#N)cc(C3(C4CCC4)C(C#N)=C(N)Oc4[nH]nc(C)c43)c2)c1 (stereo not shown) [Compound 2.453]
	< 10	COC(=O)c1cccc(-c2cc(Cl)cc(C3(C4CCC4)C(C#N)=C(N)Oc4[nH]nc(C)c43)c2)c1 (stereo not shown) [Compound 2.456]
	< 10	COC(=O)c1cccc(-c2cc(Cl)cc(C3(C4CCC4)C(C#N)=C(N)Oc4[nH]nc(OC)c43)c2)c1 (stereo not shown) [Compound 2.457]
	< 10	Cc1n[nH]c2c1C(c1cc(C#N)cc(-c3ccc(O)c(C(F)(F)F)c3)c1)(C1CCC1)C(C#N)=C(N)O2 (stereo not shown) [Compound 2.459]
	< 10	Cc1n[nH]c2c1C(c1cc(C#N)cc(-c3ccc(C(=O)O)cc3)c1)(C1CCC1)C(C#N)=C(N)O2 (stereo not shown) [Compound 2.460]
	< 10	Cc1n[nH]c2c1C(c1cc(C#N)cc(-c3cccc(C(=O)O)c3)c1)(C1CCC1)C(C#N)=C(N)O2 (stereo not shown) [Compound 2.461]
	< 10	COc1c(F)cc(-c2cc(C#N)cc(C3(C4CCC4)C(C#N)=C(N)Oc4[nH]nc(C)c43)c2)cc1F (stereo not shown) [Compound 2.463]
	< 10	COc1ccc(C2(C3CCC3)C(C#N)=C(N)Oc3[nH]nc(C)c32)cc1C#N (stereo not shown) [Compound 2.464]
	< 10	CCC1(c2cc(Cl)cc(Br)c2)C(C#N)=C(N)Oc2[nH]nc(C)c21 (stereo not shown) [Compound 2.468]
	< 10	CCC1(c2cc(C)cc(Br)c2)C(C#N)=C(N)Oc2[nH]nc(C)c21 (stereo not shown) [Compound 2.469]
	< 10	Cc1n[nH]c2c1C(c1cc(C#N)cc(OCC#N)c1)(C1CCC1)C(C#N)=C(N)O2 (stereo not shown) [Compound 2.471]
	< 10	CCC1(c2cc(Br)c(C)c(Br)c2)C(C#N)=C(N)Oc2[nH]nc(C)c21 (stereo not shown) [Compound 2.473]
